Results: paper PMC6920777, “Pharmacokinetic Alteration of Paclitaxel by Ferulic Acid Derivative” (Pharmaceutics, 2019)
Like-named read-outs stand apart in the source and are kept apart here.

Key:
MCF-7/ADR cells [1] = assay: [3H]-daunomycin accumulation study; type: cell-based, human; conditions: 100 µM, 2 h incubation, mean ± SD, triplicate
Procedure: (§1) The methods for [^3H]-DNM accumulation and efflux studies were reported previously. […] The experiments were performed in triplicate.
(§2) [^3H]-DNM uptake and efflux were determined after the incubation with each derivative (100 µM) for 2 h and 1 h, respectively. […] Control represents accumulation or efflux of tritium labeled DNM alone.

MCF-7/ADR cells [2] = assay: [3H]-daunomycin efflux study; type: cell-based, human
Procedure: as §1, §2

MCF-7/ADR cells [3] = assay: Toxic effect of each derivative and VER alone (cell survival); type: cell-based; conditions: Homo sapiens, NCI/ADR-RES, 2 h incubation, read-out: cell survival ratio; for viability at 5 µM: mean (SD); for viability at 10 µM / viability at 25 µM / viability at 50 µM / viability at 100 µM: mean
Procedure: The effect of eight FA derivatives on cytotoxicity was studied in P-gp overexpressed human breast cancer cells (MCF-7/ADR) using the SRB assay. The details of the cell culture condition and the assay method were presented in our previous reports. […] The assay was performed in triplicate. […]
Data are presented as mean ± SD.
The numerical data were represented the cell survival ratio.

[4] = Pharmacokinetic study of oral PTX alone or co-administered with compound 5c; type: in vivo, male Sprague-Dawley rats
Procedure: The pharmacokinetic (PK) study was performed using male Sprague-Dawley rats (6 weeks old and 200 g–235 g) commercially available from Orient Bio (Seongnam, Korea). All animal procedures were approved by the Institutional Animal Care and Use Committee of Ewha Womans University (No. 2012-01-019, approved on 3 April 2012), Republic of Korea.
Rats were divided into the following 4 groups: Oral administration (PO) of PTX (25 mg/kg) alone and co-administration of PTX (25 mg/kg) with compound 5c at three different doses (0.5, 2 and 5 mg/kg). Each group had 5 rats except for a group of 2 mg/kg dose (n = 4). The blood samples (0.2 mL) were collected from the common carotid artery at 0, 0.25, 0.5, 1, 2, 3, 4, 6, 8, 10 and 24 h.
PTX concentrations in rat plasma were analyzed by Agilent HP1100 series system using a Capcell-pak C18 MG120 column (3 mm × 250 mm, 5 µm, Shiseido, Tokyo, Japan). The samples were eluted with mobile phase composed of acetonitrile and 0.1% phosphoric acid (1/1, v/v) at a flow rate of 0.5 mL/min for 30 min and detected at a wavelength of 227 nm. The HPLC-UV method was validated by FDA guidelines as follows: Specificity (PTX: 14.8 min; internal standard: 26.7 min), linearity over the concentration range between 0.01 and 10 µg/mL, lower limit of quantification (0.01 µg/mL) and intra-/inter-day precision and accuracy (2.4–9.1% and 92.1–102.7%, respectively). All other details for sample preparation and quantification of PTX concentrations in rat plasma were reported previously.
The following PK parameters of PTX after oral single dosing to rats were estimated by non-compartmental analysis using WinNonlin® Professional version 5.2 software (Pharsight Corporation, Mountain View, CA, USA): The area under the plasma concentration-time curve from 0 h to infinity (AUCinf), elimination half-life (t1/2), apparent volume of distribution after oral single dosing (Vz/F), oral clearance (Cl/F), maximum plasma concentration (Cmax) and the time required to reach Cmax (Tmax). The relative bioavailability (RB, %) of PTX was calculated with the following formula: RB ( % )=AUCinf po co−administraion/AUCinf po control×100
AUCinf po control is the AUCinf obtained from oral single administration of PTX alone, and AUCinf po co-administration is the AUCinf obtained from oral single co-administration of PTX and compound 5c.

MCF-7/ADR cells [5] = assay: Cytotoxicity of DNM with FA derivatives, SRB assay; type: cell-based, human; conditions: for IC50 of DNM as fraction of negative control (DNM alone) value: derivative 100 µM
Procedure: The effect of eight FA derivatives on cytotoxicity was studied in P-gp overexpressed human breast cancer cells (MCF-7/ADR) using the SRB assay. The details of the cell culture condition and the assay method were presented in our previous reports. […] The assay was performed in triplicate.

human P-gp membranes = molecular target: T1, human P-gp membranes (Homo sapiens, UniProt P08183); assay: Human P-glycoprotein ATPase activity assay; type: biochemical; conditions: for P-gp ATPase activity, ratio of blank (control): human P-gp membranes
T1 construct: purchased
Procedure: The ATPase activities were expressed as the rate of phosphate release per milligram of membrane protein and converted to the relative ratio versus the control. This assay was performed in duplicate.

[6] = parameters: method as in PMID 24373826; conditions: rats; cited from earlier work
[7] = parameters: method as in PMID 24373826; conditions: humans; cited from earlier work
[8] = 100 µM, 1 h incubation, mean ± SD, triplicate

T1 sequence (P08183 whole entry): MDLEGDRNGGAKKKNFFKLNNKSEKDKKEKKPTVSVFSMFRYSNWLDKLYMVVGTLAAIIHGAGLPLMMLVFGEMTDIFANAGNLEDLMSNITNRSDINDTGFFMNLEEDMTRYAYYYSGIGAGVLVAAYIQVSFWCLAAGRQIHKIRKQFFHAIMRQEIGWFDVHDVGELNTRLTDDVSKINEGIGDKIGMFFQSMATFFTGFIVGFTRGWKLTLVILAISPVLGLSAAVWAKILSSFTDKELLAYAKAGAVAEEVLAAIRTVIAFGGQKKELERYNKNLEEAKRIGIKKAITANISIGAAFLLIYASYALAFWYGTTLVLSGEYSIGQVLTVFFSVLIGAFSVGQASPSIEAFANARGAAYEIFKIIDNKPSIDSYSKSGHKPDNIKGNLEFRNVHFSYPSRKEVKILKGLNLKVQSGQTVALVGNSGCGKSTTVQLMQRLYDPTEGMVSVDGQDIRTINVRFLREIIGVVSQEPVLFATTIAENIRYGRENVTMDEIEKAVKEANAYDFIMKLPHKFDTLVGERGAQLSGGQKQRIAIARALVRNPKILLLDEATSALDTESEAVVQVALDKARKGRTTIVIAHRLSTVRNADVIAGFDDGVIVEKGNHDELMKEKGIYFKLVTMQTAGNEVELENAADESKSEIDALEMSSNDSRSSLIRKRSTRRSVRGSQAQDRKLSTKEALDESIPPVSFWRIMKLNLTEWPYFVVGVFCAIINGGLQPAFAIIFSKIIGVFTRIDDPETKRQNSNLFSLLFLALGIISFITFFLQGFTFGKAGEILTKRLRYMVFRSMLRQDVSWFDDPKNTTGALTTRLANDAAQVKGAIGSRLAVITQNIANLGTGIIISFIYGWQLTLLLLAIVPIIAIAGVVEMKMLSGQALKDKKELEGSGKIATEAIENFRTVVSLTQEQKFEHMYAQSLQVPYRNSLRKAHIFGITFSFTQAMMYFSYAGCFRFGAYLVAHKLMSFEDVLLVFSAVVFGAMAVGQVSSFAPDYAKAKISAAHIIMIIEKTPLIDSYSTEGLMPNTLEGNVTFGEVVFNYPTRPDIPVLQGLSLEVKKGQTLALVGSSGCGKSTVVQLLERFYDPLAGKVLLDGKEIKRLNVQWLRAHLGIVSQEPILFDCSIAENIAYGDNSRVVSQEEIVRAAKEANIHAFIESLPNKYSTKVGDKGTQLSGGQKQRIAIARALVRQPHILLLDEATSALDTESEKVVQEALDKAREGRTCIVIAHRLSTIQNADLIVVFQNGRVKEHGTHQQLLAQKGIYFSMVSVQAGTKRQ

Row | Structure (SMILES) | viability at 5 µM (MCF-7/ADR cells [3]) [%] | viability at 10 µM (MCF-7/ADR cells [3]) [%] | viability at 25 µM (MCF-7/ADR cells [3]) [%] | viability at 50 µM (MCF-7/ADR cells [3]) [%] | viability at 100 µM (MCF-7/ADR cells [3]) [%] | melting point [°C] | IC50 of DNM as fraction of negative control (DNM alone) value (MCF-7/ADR cells [5]) | P-gp ATPase activity, ratio of blank (control) (human P-gp membranes; 20 μM) | P-gp ATPase activity, ratio of blank (control) (human P-gp membranes; 50 μM) | P-gp ATPase activity, ratio of blank (control) (human P-gp membranes; 100 μM) | other results
1 | COc1cc(/C=C/C(=O)N(C)C)ccc1OCC(C)C [Compound 5e, (E)-3-(4-isobutoxy-3-methoxyphenyl)-N,N-dimethylacrylamide] | 100 | 99.4 | 95.8 | 95 | 94.8 | 109 to 111 |  |  |  |  | accumulation of [3H]-DNM (MCF-7/ADR cells [1]): 382.1 ± 20.4%; efflux of [3H]-DNM (MCF-7/ADR cells [2]; [8]): 39.9 ± 3.8%
2 | COc1cc(/C=C/C(=O)N2CCCCC2)ccc1OCC(C)C [Compound 5b, (E)-3-(4-isobutoxy-3-methoxyphenyl)-1-(piperidin-1-yl)prop-2-en-1-one] | 101 | 97.8 | 96.1 | 96.1 | 92 | 96 to 97 |  |  |  |  | 
3 | CC(=O)O[C@H]1C(=O)[C@@]2(C)[C@H]([C@H](OC(=O)c3ccccc3)[C@]3(O)C[C@H](OC(=O)[C@H](O)[C@@H](NC(=O)c4ccccc4)c4ccccc4)C(C)=C1C3(C)C)[C@]1(OC(C)=O)CO[C@@H]1C[C@@H]2O [PTX, Paclitaxel] |  |  |  |  |  |  |  |  |  |  | Cl/F of PTX ([4]; PTX 25 mg/kg PO alone, rats): 8.22 ± 1.84 L/h; Cmax of PTX ([4]; PTX 25 mg/kg PO alone, rats): 187 ± 41 ng/mL; AUC(0-inf) ([4]; male, Sprague-Dawley, rat, plasma, PTX 25 mg/kg PO alone, rats, read-out: AUCinf of PTX): 773 ± 169 ng·h/mL; Vd/F ([4]; male, Sprague-Dawley, rat, plasma, PTX 25 mg/kg PO alone, rats, read-out: Vz/F of PTX): 35.1 ± 16.8 L; half-life ([4]; male, Sprague-Dawley, rat, plasma, PTX 25 mg/kg PO alone, rats, read-out: t1/2 of PTX (converted)): 2.8 ± 0.86 h
4 | COc1cccc2c1C(=O)c1c(O)c3c(c(O)c1C2=O)C[C@@](O)(C(C)=O)C[C@@H]3O[C@H]1C[C@H](N)[C@H](O)[C@H](C)O1 [DNM, daunomycin, reference compound] |  |  |  |  |  |  |  |  |  |  | IC50 (MCF-7/ADR cells [5]; Homo sapiens, NCI/ADR-RES, negative control: DNM alone, incubation): 31.7 µM; efflux of [3H]-DNM (MCF-7/ADR cells [2]; control: tritium labeled DNM alone, 1 h): 63.0 ± 3.3%
5 | CCCOc1ccc(/C=C/C(=O)N(C)C)cc1OC [Compound 5d, (E)-3-(3-methoxy-4-propoxyphenyl)-N,N-dimethylacrylamide] | 102 | 97.8 | 97.1 | 97.1 | 96.2 | 108 to 109 |  |  |  |  | 
6 | COc1cc(/C=C/C(=O)N2CCCCC2)ccc1OCc1ccccc1 [Compound 5c, (E)-3-(4-benzyloxy-3-methoxyphenyl)-1-(piperidin-1-yl)prop-2-en-1-one] | 101 | 98.5 | 96.1 | 96.9 | 87.6 |  | about 1/5 | 1.54 | 2.48 | 4.02 | accumulation of [3H]-DNM (MCF-7/ADR cells [1]): 438.4 ± 4.9%; efflux of [3H]-DNM (MCF-7/ADR cells [2]; [8]): 43.1 ± 4.6%; Concentration dependence of P-gp ATPase activity (human P-gp membranes; 20, 50 and 100 μM): stably increased ATPase activity in a concentration-dependent manner; Cl/F of PTX ([4]; PTX 25 mg/kg PO co-administered with compound 5c 2 mg/kg, rats): 4.10 ± 1.53 L/h; Cl/F of PTX ([4]; PTX 25 mg/kg PO co-administered with compound 5c 5 mg/kg, rats): 4.53 ± 1.04 L/h; Effect on PK parameters of PTX ([4]; compound 5c 0.5 mg/kg co-administered, compared to PO control (PTX alone)): did not alter any PK parameters of PTX; Improvement of the BA of PTX ([4]; compound 5c 5 mg/kg co-administered with PTX in rats): approximately twofold
7 | COc1cc(/C=C/C(=O)O)ccc1O [FA, Ferulic acid] |  |  |  |  |  |  |  |  |  |  | Time within which FA is absorbed in the intestine [6]: 5 to 15 min; Time within which FA is absorbed in the intestine [7]: ≤ 30 min
8 | COc1cc(/C=C/C(=O)N(C)C)ccc1OCc1ccccc1 [Compound 5g, (E)-3-(4-benzyloxy-3-methoxyphenyl)-N,N-dimethylacrylamide] | 104 | 102 | 100 | 99.3 | 102 | 135 to 136 | about 1/5 | 1.26 | 1.77 | 5.19 | 
9 | CCCOc1ccc(/C=C/C(=O)N(C)Cc2ccccc2)cc1OC [Compound 5f, (E)-N-benzyl-3-(3-methoxy-4-propoxyphenyl)-N-methylacrylamide] | 98.9 | 99.4 | 100 | 96.9 | 92.8 |  | about 1/5 | 2.85 | 3.12 | 3.35 | 
10 | CCCOc1ccc(/C=C/C(=O)N2CCC(O)(c3ccccc3)CC2)cc1OC [Compound 5h, (E)-1-(4-hydroxy-4-phenylpiperidin-1-yl)-3-(3-methoxy-4-propoxyphenyl) prop-2-en-1-one] | 103 | 99.2 | 94.6 | 89.4 | 89.6 | 163 to 164 | about 1/5 | 3.99 | 2.69 | 2.79 | accumulation of [3H]-DNM (MCF-7/ADR cells [1]): 426.1 ± 26.2%; efflux of [3H]-DNM (MCF-7/ADR cells [2]; [8]): 43.3 ± 0.9%
11 | CCCOc1ccc(/C=C/C(=O)N2CCCCC2)cc1OC [Compound 5a, (E)-3-(3-methoxy-4-propoxyphenyl)-1-(piperidin-1-yl)prop-2-en-1-one] | 96.5 | 94.1 | 96 | 93.8 | 87.8 | 91 to 92 |  |  |  |  | 
